Patent publication US20210009959A1, “METHODS FOR ENHANCING OSTEOGENIC DIFFERENTIATION USING VITAMIN D” (priority 2019, published 2021)

How the values were obtained:
[1] = system: human adipose stem cells (hASCs); experiment: hASC proliferation (cell number) on BCP scaffold, static culture; assay type: cell-based; settings: vs non-treated controls
Method: In one embodiment, a method of static culture of hASCs by pre-treatment with vitamin D3 (calcitriol) and attachment of hASCs to the scaffold used in one-step surgical procedure comprises the following steps. At one step, isolating hASCs as explained in FIG. 1. In an embodiment, the hASCs from three donors at passage 3 are used for further processing. As an optional step, the obtained hASCs are either or not incubated for a period of about 30 mins with low concentrated calcitriol of about 10 nM at room temperature. At next step, the calcitriol treated hASCs are washed twice with Phosphate Buffered Saline (PBS) to remove calcitriol. Further, the washed hASCs are centrifuged and resuspended in Dulbecco's Minimum Essential Medium (DMEM) without any supplements. At another step, the resuspended cells are seeded on the scaffold and allowed to attach to the scaffolds for a period of about 30 minutes. At next step, the scaffolds with attached cells are transferred to 12-well plates with Costar® Transwell® containers (Corning Life Sciences, Lowell, Mass., USA) containing expansion medium (DMEM) supplemented with 10% Fetal Clone I (FCI), antibiotics (1% penicillin/streptomycin/fungizone (PSF)), 50 μM ascorbic acid (Merck, Darmstadt, Germany), and 10 mM β-glycerol phosphate (Merck, Darmstadt, Germany) (PLGA/β-TCP). At next step, the hASCs seeded scaffolds are incubated at 5% CO2 in a humidified incubator at predefined temperature of about 37° C. for a period of about 3 weeks. The effect of 30 minutes pre-treatment with calcitriol on hASC proliferation is exemplarily illustrated in FIG. 4C. […] The 30 minutes pre-treatment with calcitriol increases the cell number at day 14 by 3.5-fold, and at day 21 by 2.6-fold. The continuous treatment of hASCs with calcitriol for 3 weeks increases the cell number only at day 14 by 1.7-fold, but not at day 21 compared to non-treated controls as shown in FIG. 4C. The results of hASC proliferation are expressed as CFU (in %) versus time (in days) and represent means±standard errors of the means of the colon forming unit counts (n=3), where p<0.0001.

[2] = system: human adipose stem cells (hASCs); experiment: ALP activity of hASCs in 3D PLGA/β-TCP scaffold, dynamic and static culture; assay type: cell-based
Method: In one embodiment, dynamic culture of pre-treated hASCs with calcitriol, using the modified perfusion bioreactor comprises the following steps. In one embodiment, the scaffolds are 3D PLGA/β-TCP. The modified perfusion bioreactor […] comprises five scaffolds, loaded with a total of 70 ml of culture medium as shown in FIG. 2. At another step, 30 ml of the culture medium is replaced twice a week for a total period of two weeks. At another step, the culture medium in the modified perfusion bioreactor 200 is distributed to the five scaffolds with the flow rate of about 5 ml/min using the peristaltic pump 202.
In one embodiment, the method of static culture of pre-treated hASCs is continued in a flask bioreactor with the same volume of culture medium utilized in the dynamic culture. Further, the methods of culturing the hASCs are divided into different groups. In one embodiment, the methods of culturing of hASCs are divided into four groups such as, static culture of non-treated hASCs, static culture of pre-treated hASCs with calcitriol, dynamic culture of non-treated hASCs and dynamic culture of pre-treated hASCs with calcitriol.
Referring to FIG. 10, the effects of dynamic pre-treated/non-treated hASCs versus static pre-treated/non-treated hASCs on ALP activity of hASCs are disclosed, where the hASCs are seeded in 3D PLGA/β-TCP scaffold. In one embodiment, the hASCs are pre-treated with or without 10 nM calcitriol for 30 minutes and cultured in the modified perfusion bioreactor 200 (dynamic culture) and flask bioreactor (static culture). The ALP activity of hASCs after 7 days perfusion culture of pre-treated hASCs is increased by 9.2-fold compared to static culture of pre-treated hASCs, and the ALP activity of non-treated hASCs is increased by 10.3-fold compared to static culture of non-treated hASCs.
The 14 days of perfusion culture of non-treated hASCs increases ALP activity by 1.4-fold relative to static counterpart, and perfusion culture of pre-treated hASCs increases ALP activity by 2.2-fold relative to static culture of pre-treated hASCs. Moreover, calcitriol pre-treatment increases ALP activity of hASCs by 2.8-fold at day 7 and 1.3-fold at day 14 compared to non-treated hASCs in static condition. On the whole, the highest ALP activity is observed at day 7, which belongs to perfusion culture of pre-treated hASCs with calcitriol.

For `C=C1/C(=C\C=C2/CCC[C@]3(C)[C@@H]([C@H](C)CCCC(C)(C)O)CC[C@@H]23)C[C@@H](O)C[C@@H]1O` [calcitriol, 1,25-dihydroxyvitamin D3], the “cell number, increase” value ([1]; 30 min pre-treatment, day 14) was 3.5 fold, the “cell number, increase” value ([1]; 30 min pre-treatment, day 21) was 2.6 fold and the “cell number, increase” value ([1]; continuous treatment for 3 weeks, day 14) was 1.7 fold. The “cell number, increase” value ([1]; continuous treatment for 3 weeks, day 21) was “not at day 21”, the “ALP activity, increase” value ([2]; 7 days, perfusion culture of pre-treated hASCs vs static culture of pre-treated hASCs) was 9.2 fold and the “ALP activity, increase” value ([2]; 7 days, perfusion culture of pre-treated vs perfusion culture of non-treated hASCs) was 2.6 fold. For the same compound, the “ALP activity, increase” value ([2]; 14 days, perfusion culture of pre-treated vs static culture of pre-treated hASCs) was 2.2 fold, the “ALP activity, increase” value ([2]; static condition, day 7, pre-treated vs non-treated hASCs) was 2.8 fold and the “ALP activity, increase” value ([2]; static condition, day 14, pre-treated vs non-treated hASCs) was 1.3 fold.
